This is an account of results in patent US12496350B2 (Ohio State Innovation Foundation, priority 2018, dated 2025).

Where a SMILES comes first, the peptide text is derived from it. Where no end group is shown, it is not given here. [ ]: non-standard residue; d: D form. The star is where a group is joined. X2 = O=C(O)c1cc(C(=O)*)ccc1-c1c2ccc(=O)cc-2oc2cc(O)ccc12; X1 = O=C(O)c1cc(NC(=S)*)ccc1C1c2ccc(O)cc2Oc2cc(O)ccc21; X3 = O=C(O)c1cc(C(=O)*)ccc1C1c2ccc(O)cc2Oc2cc(O)ccc21; 1Nal = N[C@@H](Cc1cccc2ccccc12)C(=O)O; 2Nal = N[C@@H](Cc1ccc2ccccc2c1)C(=O)O; Bta = N[C@@H](Cc1csc2ccccc12)C(=O)O; Pen = CC(C)(S)[C@H](N)C(=O)O; Tle = CC(C)(C)[C@H](N)C(=O)O; AEEA = NCCOCCOCC(=O)O

The target of the first assay is T1, CAL PDZ domain (CALP5-His) (Homo sapiens, UniProt Q9HD26).
T1 construct: His
Briefly: FP-based competition assay, Condition B (probe FAM-[…]-OH). It is filed as binding. The conditions noted are these: Condition B (superscript b): 100 nM probe FAM-[…]-OH, 500 nM CALP5-His, 5 mM DTT. On the procedure:
Serial dilutions of each competitor peptide were prepared in PBS and the incubation solution was added to each. The combined solutions were gently mixed for 1 h at RT after which 20 uL sample was pipetted into 384-well black-on-black microplates and fluorescence polarization was measured using a TECAN Infinite M1000 plate reader. Data was processed to determine IC50 using GraphPad PRISM ver. 6.0.
For orientation: IC50 means the concentration needed to halve the response being measured. With `CC(=O)N[C@@H](CS)C(=O)N[C@@H](CCCNC(=N)N)C(=O)N[C@@H](CCCNC(=N)N)C(=O)N[C@@H](CCCNC(=N)N)C(=O)N[C@@H](Cc1ccccc1)C(=O)N[C@@H](Cc1c[nH]c2ccccc12)C(=O)N[C@@H](CCC(N)=O)C(=O)N[C@@H](CS)C(=O)N[C@H](C(=O)N[C@@H](CCCNC(=N)N)C(=O)N[C@@](C)(CC(C)C)C(=O)O)[C@@H](C)O` [Compound 4], the IC50 was > 20 µM.

Still in this assay, the particulars now being: Pen for cysteine at P-3.
Turning to `CC(=O)N[C@@H](CS)C(=O)N[C@@H](CCCNC(=N)N)C(=O)N[C@@H](CCCNC(=N)N)C(=O)N[C@@H](CCCNC(=N)N)C(=O)N[C@@H](Cc1ccccc1)C(=O)N[C@@H](Cc1c[nH]c2ccccc12)C(=O)N[C@@H](CCC(N)=O)C(=O)N[C@H](C(=O)N[C@H](C(=O)N[C@@H](CCCNC(=N)N)C(=O)N[C@H](C(=O)O)C(C)(C)C)[C@@H](C)O)C(C)(C)S` [Compound 16, Ac-Cys-Arg-Arg-Arg-Phe-Trp-Gln-Pen-Thr-Arg-Tle-OH], the “improvement of CAL binding” value is listed as ~2 fold.

The same assay, now with this note: Trp replaced with 1- or 2-naphthylalanine.
For the compound `CC(=O)N[C@@H](CS)C(=O)N[C@@H](CCCNC(=N)N)C(=O)N[C@@H](CCCNC(=N)N)C(=O)N[C@@H](CCCNC(=N)N)C(=O)N[C@@H](Cc1ccccc1)C(=O)N[C@@H](Cc1ccc2ccccc2c1)C(=O)N[C@@H](CCC(N)=O)C(=O)N[C@@H](CS)C(=O)N[C@H](C(=O)N[C@@H](CCCNC(=N)N)C(=O)N[C@H](C(=O)O)C(C)(C)C)[C@@H](C)O` [Compound 15, Ac-Cys-Arg-Arg-Arg-Phe-(2-Nal)-Gln-Cys-Thr-Arg-Tle-OH] (Ac-CRRRF[2Nal]QCTR[Tle]-OH), the “effect of substitution at P-5 on binding” value was “did not significantly affect the binding”.

Turning to `CC(=O)N[C@@H](CS)C(=O)N[C@@H](CCCNC(=N)N)C(=O)N[C@@H](CCCNC(=N)N)C(=O)N[C@@H](CCCNC(=N)N)C(=O)N[C@@H](Cc1ccccc1)C(=O)N[C@@H](Cc1cccc2ccccc12)C(=O)N[C@@H](CCC(N)=O)C(=O)N[C@@H](CS)C(=O)N[C@H](C(=O)N[C@@H](CCCNC(=N)N)C(=O)N[C@H](C(=O)O)C(C)(C)C)[C@@H](C)O` [Compound 14, Ac-Cys-Arg-Arg-Arg-Phe-(1-Nal)-Gln-Cys-Thr-Arg-Tle-OH] (Ac-CRRRF[1Nal]QCTR[Tle]-OH), the “effect of substitution at P-5 on binding” value is “did not significantly affect the binding”.

In another assay the target is T1, CAL PDZ domain (CALP5-His). Briefly: Direct fluorescence polarization binding of labeled peptide, Condition C.
Details: not given
On the procedure:
Condition C (denoted with superscript ^C): 50 nM labeled peptide was incubated with 2 mM TCEP in PBS at pH 7.4 containing 0.01% Triton-X100. CALP5-His was serially diluted in PBS containing 0.01% Triton-X100 to which was then added the peptide and TCEP solution. This solution was mixed for 1 h at RT then 20 uL was pipetted into 384-well microplates and fluorescence polarization was measured using a TECAN Infinite M1000 plate reader. KD values were calculated using KaleidaGraph v. 3.6 using the equation: […]
Binding Affinity and Selectivity. The potency and selectivity of inhibitor 29 was first assessed by comparing its binding affinity to the four PDZ domains of CAL, NHERF1, and NHERF2, which are involved in the trafficking of CFTR to and from the plasma membrane. Peptides were labeled with FITC at the N-terminus through a miniPEG linker and tested for binding to various PDZ domains by fluorescence polarization (FP). FITC-labeled peptide (50 nM) was incubated with varying concentrations of PDZ domain in PBS (pH 7.4) containing 0.01% Triton X-100 and 2 mM TCEP for 1 h at room temperature. After 1 h, 20 μL of each sample was pipetted into 384-well black-on-black microplates and fluorescence polarization was measured by using a TECAN Infinite M1000 plate reader. Data was processed using GraphPad PRISM ver. 8.0.
A general note: Fluorescence polarisation rises when a labelled molecule tumbles more slowly, as on binding a larger partner.
Take `C[C@@H](O)[C@H](NC(=O)[C@@H](NC(=O)[C@@H](NC(=O)[C@H](Cc1csc2ccccc12)NC(=O)[C@H](Cc1ccc2ccccc2c1)NC(=O)[C@H](CCCNC(=N)N)NC(=O)[C@H](CCCNC(=N)N)NC(=O)[C@@H](CCCNC(=N)N)NC(=O)[C@H](CS)NC(=O)COCCOCCNC(=O)c1ccc(-c2c3ccc(=O)cc-3oc3cc(O)ccc23)c(C(=O)O)c1)C(C)(C)S)C(C)(C)C)C(=O)N[C@@H](CCCNC(=N)N)C(=O)N[C@H](C(=O)O)C(C)(C)C` [Compound 26, FAM-miniPEG-Cys-(D-Arg)-Arg-Arg-(2-Nal)-(Bta)-Pen-Tle-Thr-Arg-Tle-OH] ({X2-AEEA}-C[dR]RR[2Nal][Bta][Pen][Tle]TR[Tle]-OH): the “specificity for CAL PDZ domain relative to other PDZ domains (e.g., NHERF PDZ domains)” value is “relatively low specificity”.

The same assay, now with this note: Condition C (superscript c): 50 nM labeled peptide, 2 mM TCEP; read-out: KD (printed in the IC50 (nM) column).
What is called Kd is the equilibrium constant for the complex coming apart. As to `C[C@@H](O)[C@H](NC(=O)[C@@H](NC(=O)[C@@H](NC(=O)[C@H](Cc1csc2ccccc12)NC(=O)[C@H](Cc1ccc2ccccc2c1)NC(=O)[C@H](CCCNC(=N)N)NC(=O)[C@H](CCCNC(=N)N)NC(=O)[C@@H](CCCNC(=N)N)NC(=O)[C@H](CS)NC(=O)COCCOCCNC(=O)c1ccc(-c2c3ccc(=O)cc-3oc3cc(O)ccc23)c(C(=O)O)c1)C(C)(C)S)C(C)(C)C)C(=O)N[C@@H](CCCNC(=N)N)C(=O)N[C@H](C(=O)O)C(C)(C)C` [Compound 26, FAM-miniPEG-Cys-(D-Arg)-Arg-Arg-(2-Nal)-(Bta)-Pen-Tle-Thr-Arg-Tle-OH] ({X2-AEEA}-C[dR]RR[2Nal][Bta][Pen][Tle]TR[Tle]-OH), the Kd was determined as 49 ± 3 nM.

For the compound `C[C@@H](O)[C@H](NC(=O)[C@@H](NC(=O)[C@@H]1CCCN1C(=O)[C@H](Cc1c[nH]c2ccccc12)NC(=O)[C@H](Cc1ccc2ccccc2c1)NC(=O)[C@H](CCCNC(=N)N)NC(=O)[C@H](CCCNC(=N)N)NC(=O)[C@H](CCCNC(=N)N)NC(=O)[C@H](CS)NC(=O)COCCOCCNC(=O)c1ccc(C2c3ccc(O)cc3Oc3cc(O)ccc32)c(C(=O)O)c1)C(C)(C)S)C(=O)N[C@@H](CCCNC(=N)N)C(=O)N[C@H](C(=O)O)C(C)(C)C` [Compound 23, FAM-miniPEG-Cys-(D-Arg)-Arg-Arg-(2-Nal)-Trp-Pro-Pen-Thr-Arg-Tle-OH] ({X3-AEEA}-CRRR[2Nal]WP[Pen]TR[Tle]-OH), the Kd stood at 168 nM.

The same assay, now with this note: FITC-labeled peptide, FP; read-out: Affinity (KD).
On to `CC(=O)N[C@@H](CS)C(=O)N[C@H](CCCNC(=N)N)C(=O)N[C@@H](CCCNC(=N)N)C(=O)N[C@@H](CCCNC(=N)N)C(=O)N[C@@H](Cc1ccc2ccccc2c1)C(=O)N[C@@H](Cc1c[nH]c2ccccc12)C(=O)N1CCC[C@H]1C(=O)N[C@H](C(=O)N[C@H](C(=O)N[C@@H](CCCNC(=N)N)C(=O)N[C@H](C(=O)O)C(C)(C)C)[C@@H](C)O)C(C)(C)S` [Compound 27, Ac-Cys-(D-Arg)-Arg-Arg-Nal-Trp-Pro-Pen-Thr-Arg-Tle-OH] (Ac-C[dR]RR[2Nal]WP[Pen]TR[Tle]-OH), for which the Kd amounted to 179 nM.

Regarding `C[C@@H](O)[C@H](NC(=O)[C@@H](NC(=O)[C@@H]1CCCN1C(=O)[C@H](Cc1csc2ccccc12)NC(=O)[C@H](Cc1ccc2ccccc2c1)NC(=O)[C@H](CCCNC(=N)N)NC(=O)[C@H](CCCNC(=N)N)NC(=O)[C@@H](CCCNC(=N)N)NC(=O)[C@H](CS)NC(=O)COCCOCCNC(=S)Nc1ccc(C2c3ccc(O)cc3Oc3cc(O)ccc32)c(C(=O)O)c1)C(C)(C)S)C(=O)N[C@@H](CCCNC(=N)N)C(=O)N[C@H](C(=O)O)C(C)(C)C` [Compound 28-FITC, FITC-miniPEG-Cys-(D-Arg)-Arg-Arg-Nal-Bta-Pro-Pen-Thr-Arg-Tle-OH] ({X1-AEEA}-C[dR]RR[2Nal][Bta]P[Pen]TR[Tle]-OH), the Kd is 87 ± 14 nM.

Take `CC(=O)N[C@@H](CS)C(=O)N[C@H](CCCNC(=N)N)C(=O)N[C@@H](CCCNC(=N)N)C(=O)N[C@@H](CCCNC(=N)N)C(=O)N[C@@H](Cc1ccc2ccccc2c1)C(=O)N[C@@H](Cc1csc2ccccc12)C(=O)N1CCC[C@H]1C(=O)N[C@H](C(=O)N[C@H](C(=O)N[C@@H](CCCNC(=N)N)C(=O)N[C@H](C(=O)O)C(C)(C)C)[C@@H](C)O)C(C)(C)S` [Compound 28, Ac-Cys-(D-Arg)-Arg-Arg-Nal-Bta-Pro-Pen-Thr-Arg-Tle-OH] (Ac-C[dR]RR[2Nal][Bta]P[Pen]TR[Tle]-OH): the equilibrium dissociation constant (Kd) amounted to 87 nM.

On to `C[C@@H](O)[C@H](NC(=O)[C@@H](NC(=O)[C@@H]1CCCN1C(=O)[C@H](Cc1c[nH]c2ccccc12)NC(=O)[C@H](Cc1ccc2ccccc2c1)NC(=O)[C@H](CCCNC(=N)N)NC(=O)[C@H](CCCNC(=N)N)NC(=O)[C@@H](CCCNC(=N)N)NC(=O)[C@H](CS)NC(=O)COCCOCCNC(=S)Nc1ccc(C2c3ccc(O)cc3Oc3cc(O)ccc32)c(C(=O)O)c1)C(C)(C)S)C(=O)N[C@@H](CCCNC(=N)N)C(=O)N[C@H](C(=O)O)C(C)(C)C` [Compound 27-FITC, FITC-miniPEG-Cys-(D-Arg)-Arg-Arg-Nal-Trp-Pro-Pen-Thr-Arg-Tle-OH] ({X1-AEEA}-C[dR]RR[2Nal]WP[Pen]TR[Tle]-OH), for which the Kd turned out to be 179 ± 42 nM.

Another assay deals with CAL PDZ binding domain (Homo sapiens, UniProt Q9HD26).
Assay: not given
The conditions noted are these: CAL PDZ binding sequences not conjugated to a cCPP; cited from earlier work.
As usually defined, the Ki is the dissociation constant of the complex between target and ligand, obtained from inhibition or displacement. In the case of WQRTRI [WQRTRI], the Ki is 16 ± 2 µM.

On to WQKTRI [WQKTRI], for which the Ki is 12 ± 0.9 µM.

In the case of WQFTRL [WQFTRL], the inhibition constant (Ki) was 7.6 ± 0.7 µM.

As for WQVTRV [WQVTRV], the Ki was 2.3 ± 0.2 µM.

On to WQLTKL [WQLTKL], for which the Ki is 17 ± 1 µM.

Take WQKTKL [WQKTKL]: the inhibition constant (Ki) was 17.8 ± 0.8 µM.

With WQKTRL [WQKTRL], the inhibition constant (Ki) was 9 ± 0.6 µM.

For WQRTRV [WQRTRV], the Ki is 18 ± 1 µM.

As for WQKTRV [WQKTRV], the Ki was 16 ± 2 µM.

Turning to WQRTRL [WQRTRL], the Ki is 10.8 ± 0.7 µM.

Regarding WQFTKL [WQFTKL], the Ki is 16 ± 1 µM.
